# Assay results: ChEMBL document CHEMBL5143564, “PES derivative PESA is a potent tool to globally profile cellular targets of PES” (Bioorg Med Chem Lett, 2022)
# Active and inactive are the calls of the source. No cut-off for these calls is given here.
# Experiments:
# [1] = GSH reactivity in pH 7.4 buffer assessed as GSH adduct formation by measuring half life at 50 uM by near-UV absorbance spectra analysis; type: physicochemical; conditions: pH 7.4, 50 µM
# [2] = system: DOHH-2; test: Up regulation of HSP70 expression in human DOHH-2 cells at 0.5 to 10 uM measured after 24 hrs by Western blot analysis; type: functional, cell-based; conditions: dose 0.5-10 µM
# [3] = system: DOHH-2; test: Up regulation of HSP90alpha expression in human DOHH-2 cells at 10 uM measured after 4 to 24 hrs by Western blot analysis; type: functional, cell-based; conditions: time 4-24 hrs
# [4] = system: Jurkat; test: Cytotoxicity against human Jurkat T cells up to 20 uM measured after 24 hrs; type: functional, cell-based
# [5] = system: Jurkat; test: Cytotoxicity against human Jurkat T cells measured after 72 hrs; type: functional, cell-based
# [6] = system: DOHH-2; test: Induction of apoptosis in human DOHH-2 cells assessed as increase in cleaved PARP expression at 10 uM measured after 4 to 24 hrs by Western blot analysis; type: functional, cell-based; conditions: time 4-24 hrs
# [7] = system: DOHH-2; test: Cytotoxicity against human DOHH-2 cells up to 20 uM measured after 24 hrs; type: functional, cell-based
# [8] = system: HepG2; test: Cytotoxicity against human HepG2 cells measured after 72 hrs; type: functional, cell-based
# [9] = system: DOHH-2; test: Induction of autophagy in human DOHH-2 cells assessed as reduction in p62 expression at 0.5 to 10 uM measured after 24 hrs by Western blot analysis; type: functional, cell-based; conditions: dose 0.5-10 µM
# [10] = system: DOHH-2; test: Cytotoxicity against human DOHH-2 cells measured after 72 hrs; type: functional, cell-based
# [11] = organism: Homo sapiens; test: Binding affinity to human HSP70 SBDalpha domain (537 to 610 residues) C574S mutant assessed as Cys603 adduct formation by size exclusion chromatography
# [12] = system: DOHH-2; test: Induction of autophagy in human DOHH-2 cells assessed as change in transformation of LC3B1 to LC3B2 expression at 10 uM measured after 4 to 24 hrs by Western blot analysis; type: functional, cell-based; conditions: time 4-24 hrs
# [13] = system: DOHH-2; test: Induction of apoptosis in human DOHH-2 cells assessed as increase in cleaved PARP expression at 0.5 to 10 uM measured after 24 hrs by Western blot analysis; type: functional, cell-based; conditions: dose 0.5-10 µM
# [14] = system: DOHH-2; test: Induction of autophagy in human DOHH-2 cells assessed as reduction in p62 expression at 10 uM measured after 4 to 24 hrs by Western blot analysis; type: functional, cell-based; conditions: time 4-24 hrs
# [15] = system: DOHH-2; test: Induction of apoptosis in human DOHH-2 cells assessed as increase in cleaved caspase-3 expression at 10 uM measured after 4 to 24 hrs by Western blot analysis; type: functional, cell-based; conditions: time 4-24 hrs
# [16] = system: HEK-293T; test: Cytotoxicity against HEK293T cells up to 20 uM measured after 24 hrs; type: toxicity, cell-based; conditions: human
# [17] = system: DOHH-2; test: Induction of autophagy in human DOHH-2 cells assessed as change in transformation of LC3B1 to LC3B2 expression at 0.5 to 10 uM measured after 24 hrs by Western blot analysis; type: functional, cell-based; conditions: dose 0.5-10 µM
# [18] = system: MDA-MB-453; test: Cytotoxicity against human MDA-MB-453 cells measured after 72 hrs; type: functional, cell-based
# [19] = organism: Homo sapiens; test: Binding affinity to ADP-bound full-length human HSP70 assessed as Cys603 adduct formation by size exclusion chromatography
# [20] = organism: Homo sapiens; test: Binding affinity to ADP-bound full-length human HSP70 assessed as cysteine adduct formation at SBDalpha domain by measuring half life at 1 mM by fluorescence spectra analysis
# [21] = system: DOHH-2; test: Up regulation of HSP90alpha expression in human DOHH-2 cells at 0.5 to 10 uM measured after 24 hrs by Western blot analysis; type: functional, cell-based; conditions: dose 0.5-10 µM
# [22] = system: DOHH-2; test: Up regulation of HSP70 expression in human DOHH-2 cells at 10 uM measured after 4 to 24 hrs by Western blot analysis; type: functional, cell-based; conditions: time 4-24 hrs
# [23] = system: DOHH-2; test: Induction of apoptosis in human DOHH-2 cells assessed as increase in cleaved caspase-3 expression at 0.5 to 10 uM measured after 24 hrs by Western blot analysis; type: functional, cell-based; conditions: dose 0.5-10 µM
# [24] = system: DOHH-2; test: Induction of autophagy in human DOHH-2 cells assessed as reduction in p62 expression at 12 uM measured after 4 to 24 hrs by Western blot analysis; type: functional, cell-based; conditions: time 4-24 hrs
# [25] = system: DOHH-2; test: Up regulation of HSP90alpha expression in human DOHH-2 cells at 0.5 to 12 uM measured after 24 hrs by Western blot analysis; type: functional, cell-based; conditions: dose 0.5-12 µM
# [26] = system: DOHH-2; test: Induction of apoptosis in human DOHH-2 cells assessed as increase in cleaved PARP expression at 12 uM measured after 4 to 24 hrs by Western blot analysis; type: functional, cell-based; conditions: time 4-24 hrs
# [27] = system: DOHH-2; test: Up regulation of HSP90alpha expression in human DOHH-2 cells at 12 uM measured after 4 to 24 hrs by Western blot analysis; type: functional, cell-based; conditions: time 4-24 hrs
# [28] = system: DOHH-2; test: Induction of apoptosis in human DOHH-2 cells assessed as increase in cleaved PARP expression at 0.5 to 12 uM measured after 24 hrs by Western blot analysis; type: functional, cell-based; conditions: dose 0.5-12 µM
# [29] = GSH reactivity in pH 7.4 buffer assessed as GSH adduct formation by measuring molecular weight at 1 mM by Q-TOF LC/MS analysis; type: physicochemical; conditions: pH 7.4, 1000 µM
# [30] = system: DOHH-2; test: Induction of autophagy in human DOHH-2 cells assessed as reduction in p62 expression at 0.5 to 12 uM measured after 24 hrs by Western blot analysis; type: functional, cell-based; conditions: dose 0.5-12 µM
# [31] = system: DOHH-2; test: Induction of apoptosis in human DOHH-2 cells assessed as increase in cleaved caspase-3 expression at 0.5 to 12 uM measured after 24 hrs by Western blot analysis; type: functional, cell-based; conditions: dose 0.5-12 µM
# [32] = system: DOHH-2; test: Induction of autophagy in human DOHH-2 cells assessed as change in transformation of LC3B1 to LC3B2 expression at 12 uM measured after 4 to 24 hrs by Western blot analysis; type: functional, cell-based; conditions: time 4-24 hrs
# [33] = GSH reactivity in pH 7.4 buffer assessed as GSH adduct formation at 1 mM by HPLC analysis; type: physicochemical; conditions: pH 7.4, 1000 µM
# [34] = system: DOHH-2; test: Up regulation of HSP70 expression in human DOHH-2 cells at 12 uM measured after 4 to 24 hrs by Western blot analysis; type: functional, cell-based; conditions: time 4-24 hrs
# [35] = system: DOHH-2; test: Induction of autophagy in human DOHH-2 cells assessed as change in transformation of LC3B1 to LC3B2 expression at 0.5 to 12 uM measured after 24 hrs by Western blot analysis; type: functional, cell-based; conditions: dose 0.5-12 µM
# [36] = system: DOHH-2; test: Up regulation of HSP70 expression in human DOHH-2 cells at 0.5 to 12 uM measured after 24 hrs by Western blot analysis; type: functional, cell-based; conditions: dose 0.5-12 µM
# [37] = system: DOHH-2; test: Induction of apoptosis in human DOHH-2 cells assessed as increase in cleaved caspase-3 expression at 12 uM measured after 4 to 24 hrs by Western blot analysis; type: functional, cell-based; conditions: time 4-24 hrs
compound,measurement,setting,value
NS(=O)(=O)C#Cc1cccc(Cl)c1,t1/2,[1],2.97 min
same,Activity,[2],Active
same,Activity,[3],Active
same,Activity,[4],Active
same,Activity,[5],Active
same,Activity,[6],Active
same,Activity,[7],Active
same,Activity,[8],Active
same,Activity,[9],Active
same,Activity,[10],Active
same,Activity,[11],Active
same,Activity,[12],Active
same,Activity,[13],Active
same,Activity,[14],Active
same,Activity,[15],Active
same,Activity,[16],Non-Toxic
same,Activity,[17],Active
same,Activity,[18],Active
same,Activity,[19],Active
same,T1/2,[20],59.9 min
same,Activity,[21],Active
same,Activity,[22],Active
same,Activity,[23],Active
NS(=O)(=O)C#Cc1ccccc1,t1/2,[1],12.26 min
same,Activity,[24],Active
same,Activity,[25],Active
same,Activity,[4],Active
same,Activity,[26],Active
same,Activity,[5],Active
same,Activity,[27],Active
same,Activity,[7],Active
same,Activity,[8],Active
same,Activity,[28],Active
same,Activity,[10],Active
same,Activity,[11],Active
same,Activity,[29],489 Da
same,Activity,[30],Active
same,Activity,[31],Active
same,Activity,[32],Active
same,Activity,[33],Active
same,Activity,[16],Non-Toxic
same,Activity,[34],Active
same,Activity,[18],Active
same,Activity,[35],Active
same,Activity,[19],Active
same,Activity,[36],Active
same,T1/2,[20],272 min
same,Activity,[37],Active
